Measurements published in ChEMBL document CHEMBL6120968, “Discovery of Thiadiazoleamide Derivatives as Potent, Selective, and Orally Available Antagonists Disrupting Androgen Receptor Homodimer” (J Med Chem, 2024).

How the values were obtained:
[1] = Microsomal stability in Beagle dog liver microsome assessed as intrinsic clearance measured upto 60 mins in presence of NADPH and UDPGA by HPLC-MS/MS analysis; format: ADME, Canis lupus familiaris; conditions: liver microsomes, read-out: CLH
[2] = Half life in rat at 20 mg/kg, po by LC-MS/MS analysis; format: ADME, organism-based; conditions: in vivo
[3] = Microsomal stability in mouse liver microsome assessed as intrinsic clearance measured upto 60 mins in presence of NADPH and UDPGA by HPLC-MS/MS analysis; format: ADME; conditions: liver microsomes, read-out: CLH
[4] = Microsomal stability in monkey liver microsome assessed as parent compound remaining at 60 mins in presence of NADPH and UDPGA by HPLC-MS/MS analysis; format: ADME, Macaca mulatta; conditions: rhesus monkey, liver microsomes, read-out: Stability
[5] = Antiproliferative activity against human WPMY-1 cells assessed as reduction in cell viability upto 2 uM incubated for 3 days by MTT assay; format: toxicity, cell-based; conditions: wpmy-1, 72 h, time 3 day
[6] = AUC (0 to t) in rat at 20 mg/kg, iv by LC-MS/MS analysis; format: ADME, organism-based; conditions: in vivo
[7] = Microsomal stability in human liver microsome assessed as half life measured upto 60 mins in presence of NADPH and UDPGA by HPLC-MS/MS analysis; format: ADME; conditions: liver microsomes
[8] = Half life in rat at 20 mg/kg, iv by LC-MS/MS analysis; format: ADME, organism-based; conditions: in vivo
[9] = biological target: Androgen receptor (Homo sapiens, UniProt P10275, F877L); experiment: Antagonist activity at Androgen receptor F877L mutant in human HEK293T cells cotransfected with MMTV-luc and renilla plasmid incubated for 24 hrs by Dual luciferase assay; format: cell-based
Androgen receptor (Homo sapiens, UniProt P10275, F877L), sequence (P10275 whole entry F877L): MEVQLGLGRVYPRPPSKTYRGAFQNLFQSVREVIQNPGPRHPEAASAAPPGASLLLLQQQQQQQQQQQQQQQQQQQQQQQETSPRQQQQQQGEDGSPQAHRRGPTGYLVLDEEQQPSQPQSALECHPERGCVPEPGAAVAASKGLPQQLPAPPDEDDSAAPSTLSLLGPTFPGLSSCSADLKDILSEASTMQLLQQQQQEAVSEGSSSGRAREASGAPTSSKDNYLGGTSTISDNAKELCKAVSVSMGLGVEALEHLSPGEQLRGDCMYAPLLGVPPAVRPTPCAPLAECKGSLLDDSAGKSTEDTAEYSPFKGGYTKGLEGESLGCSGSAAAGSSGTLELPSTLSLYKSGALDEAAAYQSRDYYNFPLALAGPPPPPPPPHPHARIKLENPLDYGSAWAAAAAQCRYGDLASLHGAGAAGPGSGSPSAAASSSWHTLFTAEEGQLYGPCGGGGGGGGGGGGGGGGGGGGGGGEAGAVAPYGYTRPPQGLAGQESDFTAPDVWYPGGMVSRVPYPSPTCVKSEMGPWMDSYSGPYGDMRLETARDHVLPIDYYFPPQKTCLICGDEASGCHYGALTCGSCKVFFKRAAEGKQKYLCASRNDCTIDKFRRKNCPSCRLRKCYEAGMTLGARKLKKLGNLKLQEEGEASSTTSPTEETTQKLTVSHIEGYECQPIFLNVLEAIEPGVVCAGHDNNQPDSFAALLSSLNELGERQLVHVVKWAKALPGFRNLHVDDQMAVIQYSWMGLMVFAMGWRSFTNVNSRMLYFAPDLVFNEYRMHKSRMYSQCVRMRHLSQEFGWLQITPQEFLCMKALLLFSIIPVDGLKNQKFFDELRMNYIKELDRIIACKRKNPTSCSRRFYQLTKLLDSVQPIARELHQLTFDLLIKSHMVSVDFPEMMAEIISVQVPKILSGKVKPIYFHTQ

[10] = Microsomal stability in rat liver microsome assessed as parent compound remaining at 60 mins in presence of NADPH and UDPGA by HPLC-MS/MS analysis; format: ADME; conditions: liver microsomes, read-out: Stability
[11] = Observed apparent oral clearance in rat at 20 mg/kg, iv by LC-MS/MS analysis; format: ADME, organism-based; conditions: in vivo
[12] = AUC (0 to infinity) in rat at 20 mg/kg, iv by LC-MS/MS analysis; format: ADME, organism-based; conditions: in vivo
[13] = Microsomal stability in Beagle dog liver microsome assessed as half life measured upto 60 mins in presence of NADPH and UDPGA by HPLC-MS/MS analysis; format: ADME, Canis lupus familiaris; conditions: liver microsomes
[14] = biological target: Androgen receptor (Homo sapiens, UniProt P10275, W742C); experiment: Antagonist activity at Androgen receptor W742C mutant in human HEK293T cells cotransfected with MMTV-luc and renilla plasmid incubated for 24 hrs by Dual luciferase assay; format: cell-based
Androgen receptor (Homo sapiens, UniProt P10275, W742C), sequence (P10275 whole entry W742C): as the sequence (P10275 whole entry F877L) above, with W742C, L877F counted along it

[15] = Observed apparent oral clearance in rat at 20 mg/kg, po by LC-MS/MS analysis; format: ADME, organism-based; conditions: in vivo
[16] = Microsomal stability in human liver microsome assessed as intrinsic clearance measured upto 60 mins in presence of NADPH and UDPGA by HPLC-MS/MS analysis; format: ADME; conditions: liver microsomes, read-out: CLH
[17] = Acute toxicity in po dosed male CB17.SCID mouse implanted with human LNCaP cells assessed as body weight loss measured within 14 days; format: organism-based; conditions: in vivo, time 14 day
[18] = Observed apparent volume of distribution during terminal phase in rat at 20 mg/kg, iv by LC-MS/MS analysis; format: ADME, organism-based; conditions: in vivo
[19] = biological target: T1, Mineralocorticoid receptor (Homo sapiens, UniProt P08235); experiment: Agonist activity at Mineralocorticoid receptor (unknown origin)
T1 sequence (P08235 whole entry): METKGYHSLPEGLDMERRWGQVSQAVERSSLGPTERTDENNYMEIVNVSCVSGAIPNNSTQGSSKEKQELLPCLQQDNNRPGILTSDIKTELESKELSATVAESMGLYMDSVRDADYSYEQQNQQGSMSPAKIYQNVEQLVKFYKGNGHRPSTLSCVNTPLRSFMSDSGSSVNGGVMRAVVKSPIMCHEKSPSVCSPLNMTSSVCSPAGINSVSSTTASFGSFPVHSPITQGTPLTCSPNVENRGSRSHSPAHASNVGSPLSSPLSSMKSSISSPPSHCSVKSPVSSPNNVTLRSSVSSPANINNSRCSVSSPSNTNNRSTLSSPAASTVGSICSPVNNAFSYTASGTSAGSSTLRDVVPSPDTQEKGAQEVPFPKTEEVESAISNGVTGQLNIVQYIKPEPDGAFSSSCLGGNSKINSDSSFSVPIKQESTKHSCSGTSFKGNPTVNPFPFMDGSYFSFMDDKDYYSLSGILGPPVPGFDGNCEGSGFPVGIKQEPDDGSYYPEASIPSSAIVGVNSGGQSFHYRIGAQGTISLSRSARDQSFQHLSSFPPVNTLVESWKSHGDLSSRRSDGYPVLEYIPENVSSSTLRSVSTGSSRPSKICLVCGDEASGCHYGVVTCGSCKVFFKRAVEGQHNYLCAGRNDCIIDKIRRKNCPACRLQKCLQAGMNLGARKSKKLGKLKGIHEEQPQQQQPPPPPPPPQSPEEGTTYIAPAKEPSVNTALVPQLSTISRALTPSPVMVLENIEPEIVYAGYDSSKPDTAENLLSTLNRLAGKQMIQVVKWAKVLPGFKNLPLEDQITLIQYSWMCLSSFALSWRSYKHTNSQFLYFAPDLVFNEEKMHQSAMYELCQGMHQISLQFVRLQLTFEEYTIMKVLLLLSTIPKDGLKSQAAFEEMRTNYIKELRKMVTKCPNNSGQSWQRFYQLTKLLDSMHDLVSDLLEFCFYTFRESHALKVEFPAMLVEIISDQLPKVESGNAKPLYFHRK

[20] = Cmax in rat at 20 mg/kg, iv by LC-MS/MS analysis; format: ADME, organism-based; conditions: in vivo
[21] = Microsomal stability in Beagle dog liver microsome assessed as parent compound remaining at 60 mins in presence of NADPH and UDPGA by HPLC-MS/MS analysis; format: ADME, Canis lupus familiaris; conditions: liver microsomes, read-out: Stability
[22] = AUC (0 to infinity) in rat at 20 mg/kg, po by LC-MS/MS analysis; format: ADME, organism-based; conditions: in vivo
[23] = Observed apparent volume of distribution during terminal phase in rat at 20 mg/kg, po by LC-MS/MS analysis; format: ADME, organism-based; conditions: in vivo, read-out: Vz/F_obs
[24] = Microsomal stability in mouse liver microsome assessed as half life measured upto 60 mins in presence of NADPH and UDPGA by HPLC-MS/MS analysis; format: ADME; conditions: liver microsomes

Cc1oc(-c2cccc(C(F)(F)F)c2)cc1C(=O)Nc1nc(CN2CCOCC2)ns1
microsomal CLint [1]: 31.5 µL/min/mg
half-life [2]: 412 min
microsomal CLint [3]: 18 µL/min/mg
remaining at 1 h [4]: 55.1%
Activity [5]: Non-toxic
AUC(0-t) [6]: 32000 ng·h/mL
half-life [7]: 37.1 min
half-life [8]: 470 min
IC50 [9]: 10 nM
remaining at 1 h [10]: 22.5%
CL/F [11]: 10.2 mL/min/kg
AUC(0-inf) [12]: 35800 ng·h/mL
half-life [13]: 22 min
IC50 [14]: 240 nM
CL/F [15]: 17.3 mL/min/kg
microsomal CLint [16]: 18.7 µL/min/mg
LD50 at 336 h [17]: 1250 mg/kg
Vz/F_obs [18]: 6.8 L/kg
IC50 [19]: > 10 µM
Cmax [20]: 8450 ng/mL
remaining at 1 h [21]: 12.6%
AUC(0-inf) [22]: 22100 ng·h/mL
Vd/F [23]: 11.1 L/kg
half-life [24]: 38.5 min
